Here are results for four molecules from PMC10508264, “Exploring the antioxidant, antimicrobial, cytotoxic and biothermodynamic properties of novel morpholine derivative bioactive Mn(II), Co(II) and Ni(II) complexes – combined experimental and theoretical measurements towards DNA/BSA/SARS-CoV-2 3CL^Pro” (RSC Medicinal Chemistry, 2023).

What is called IC50 is the point on the concentration scale where inhibition reaches its midpoint.

For one assay, the system named is NHDF. Briefly: MTT cell viability assay, NHDF. The assay is classed as cell-based, human. As to conditions: NHDF normal cells, 72 h of exposure. As to the method:
Cellular viability or metabolic properties can be measured using the MTT assay, which is a powerful and consistent method for cytotoxic properties. […] As per the colorimetric approach, the IC50 values of all compounds were evaluated via the percentage of cell viability or inhibition of growth.[128] […] However, complexes (2) and (3) were exposed to similar cytotoxic potential as the others,[129] which induces apoptosis due to their ability to produce ROS more efficiently than the free ligand. […] The cytotoxic effectiveness is dependent upon the DNA binding modalities, the structure–activity relationship, the drug concentrations, and the incubation period exposure.[130] […] Coordination between the ligands and metal ions results in charge equilibration, which diminishes the polarity of the metal ions and also causes the ability of the test complexes to pass via the cell membrane lipid layer in accordance with Tweedy's chelation theory. Thus, it inhibits the synthesis of cell-wall/protein/nucleic acid. Additionally, the results of DNA binding tests using these complexes, including gel electrophoresis, UV-vis spectral titration, hydrodynamics, emission, and CV findings, were in good agreement with the findings of cytotoxicity.[131] Expressions eqn (44) and (45) were applied to measure the percentage of growth inhibition and cell viability (Table 10). In this case, complexes (2) and (3) have been proven to have greater biological efficiency than the others. Cytotoxicity depends on not only the hydrophilicity or lipophilicity and permeability, which only assist the crossing of the cell membrane but are not responsible for cell death, but also on several other factors, including the Lewis acid character, overall stability, solubility, conductivity, compatibility, length of the metal–ligand bond, overall charge, electron density, reduction potential, dipole moment, intermolecular hydrogen bonds, proton transfer equilibrium, and coordination environment. These significant elements might also contribute to the increased biological activity. Moreover, cobalt is also generally not considered to be a very toxic element, and its coordination complexes have fascinating redox and magnetic characteristics that fit them for a remarkable range of biological and medical uses. […] Moreover, it is possible to intelligently adjust these factors to successfully target a desired pathway or biomolecule. Designing such well-controlled and selective cobalt-based therapeutics may benefit from a mechanistic understanding of the varied bioactivities of cobalt complexes. Thus, knowing the mechanism of action can direct the advancement of prospective cobalt treatments to clinical trial.[133]
2.5. Assessment of in-vitro antimicrobial properties
bacteria and 7 days for fungal strains.
In general terms: Tetrazolium dyes change colour on reduction, which living cells bring about.

Another assay has as its system MCF-7. Nature of the assay: MTT cell viability assay, MCF-7. It counts as cell-based, human. As to conditions: MCF-7, 72 h of exposure.
In another assay the test system is CT-DNA. Briefly: DNA binding by cyclic voltammetry. Conditions: for Kb, method I, Oxi: oxidation; for Kb, method I, red: reduction. As to the method: The changes in peak current as well as peak potential were monitored while concentrations of CT-DNA were increased (0–10 μM) in each sample solution.[13,36]
The CV approach is one of the most important methods for evaluating the binding mechanism of a DNA–complex adduct. The CV properties of all test samples in the presence and absence of DNA were executed at a scan rate (v) of 0.1 V s^−1 with a potential range of +2 to −2 in a Tris–HCl (5 mM)/NaCl (50 mM) (pH = 7.2) solution. The M^1+/M^2+ redox couple is caused by complexes that reveal a single anodic and cathodic peak. […] (Fig. S31 ^† and Table 6).
ΔEP is peak-to-peak separation = (EPa − EPc); E° (or E1/2) denotes the formal electrode potential = 1/2(EPa + EPc); [drawing 41] [drawing 42] and [drawing 43] represent the formal electrode potential of the M^1+/M^2+ couple in the bound and free forms, respectively. [drawing 44] = +19 mV (HL), +18 mV (1), +16 mV (2), +16 mV (3). Ipa is anodic peak current, Ipc is cathodic peak current. K^1+ is the binding constant of the reduction process, K^2+ is the binding constant of the oxidation process. S represents the binding site size of base pairs (bp) with a molecule of complex, scan rate is 100 mV s^−1, binding constant (Kb) values observed from the linear plots of log(1/[DNA]) versus log(I/I0 − I) for oxidation and reduction, (I0 − IDNA)/IDNA = Cp/Cfversus [DNA] and I^2p versus(I^2po − I^2p)/[DNA] by methods I, II and III, respectively.
While the substances often bind to DNA through intercalation, the peak potential shifts in a positive direction. When the compounds bind to DNA through minor or major grooves or electrostatic attractions, the peak potential shifts occur in a negative direction. It was observed that the consistent movement of peak potential shifts in the positive direction during increments of DNA with test substances. The binding mode in compound–DNA adducts has been described as primarily intercalation (Fig. S31 ^†), and it is also attributed to the presence of 2,2′-bipyridine and morpholine fused aromatic planar systems in mixed ligand complexes, which can create inclusion through intercalation due to hydrophobic and π–π stacking interactions in the DNA base pairs. It is also supported by the evaluated outcomes from UV-vis spectral, emission titration, viscometric, and biothermodynamic properties. Furthermore, the observed values of Kb, S, and the ratio of binding constants (K^1+/K^2+) for M^1+/M^2+ couple systems further confirmed the binding affinity via intercalation. Also, the subsequent eqn (24)–(35) are applied to determine the above parameters.[88,89]Eqn (24) is acquired from modification of the Stern–Volmer eqn (14) (Table 6). The Kb values for all samples were estimated from the linear regression plot of log(1/[DNA]) versus log(I/I0 − I) by method I (Fig. S32 ^† and Table 6). Eqn (26) was obtained from revision of eqn (25). Also, binding site size (S, bp) and Kb are estimated from eqn (30) from the linear regression plot of (Cp/Cf) versus [DNA] by method-II[90–92] (Fig. S33 ^† and Table 6). In addition, base-pair sites with a molecule of the compound are referred to as “binding site size” (S), and the evaluated S values were found in the range from 0.1718 to 0.4599 bp. […] In the Nernst eqn (31) and (32) for the galvanic cell, [drawing 58] , the formal electrode potentials of the M^1+/M^2+ couple in their bound and free forms are E1/2 or [drawing 59] and [drawing 60] , respectively. As a result of the variable binding state [M^1+/M^2+] and the delayed mass transfer of test compounds that interacted with DNA fragments, the addition of DNA to the compound solution enabled a change in the redox potential to a higher positive direction and a drop in both anodic and cathodic peak currents. In particular, the equilibrium of M^1+/M^2+ is influenced by electrostatic or hydrophobic interactions.

A further assay concerns Escherichia coli. Briefly: Agar disc diffusion, strain A. The assay is classed as cell-based. Details: Inhibition%: concentration or dose not given beside the values. Conditions: for Diameter of clear zone inhibition: control (DMSO) 6 mm. In general terms: Agar diffusion results depend on both activity and mobility in agar.

Molecules are shown by their SMILES.

For `[Mn+2].[O-]c1ccccc1N=Cc1ccc(N2CCOCC2)cc1.[O-]c1ccccc1N=Cc1ccc(N2CCOCC2)cc1.c1ccc(-c2ccccn2)nc1` [(1)], 76.6 ± 3.8 µM corresponded to half-maximal inhibition in the assay on NHDF (IC50). Moreover, the IC50 in the assay on MCF-7 was determined as 36.6 ± 1.8 µM. Further, in the assay with CT-DNA, the “Kb, method II” value was determined as 14873 M⁻¹; the “Kb, method III” value stood at 10713 M⁻¹; the “Kb, method I, Oxi” value is 10020 M⁻¹; the “Kb, method I, red” value is 7890 M⁻¹. Moreover, in the assay with Escherichia coli, the Inhibition% came to 40% and the “Diameter of clear zone inhibition” value was found to be 10 mm.

`[Co+2].[O-]c1ccccc1N=Cc1ccc(N2CCOCC2)cc1.[O-]c1ccccc1N=Cc1ccc(N2CCOCC2)cc1.c1ccc(-c2ccccn2)nc1` [(2)] had an IC50 with NHDF of 74 ± 3.7 µM. For the same molecule, in the assay with MCF-7, half-maximal inhibition (IC50) was put at 35.9 ± 1.8 µM. In the assay with CT-DNA, the “Kb, method II” value came out at 41119 M⁻¹; the “Kb, method III” value amounted to 15999 M⁻¹; the “Kb, method I, Oxi” value was 14210 M⁻¹; the “Kb, method I, red” value is 11330 M⁻¹. Further, in the assay on Escherichia coli, the Inhibition% is reported as 40% and the “Diameter of clear zone inhibition” value was found to be 10 mm.

In the case of `[Ni+2].[O-]c1ccccc1N=Cc1ccc(N2CCOCC2)cc1.[O-]c1ccccc1N=Cc1ccc(N2CCOCC2)cc1.c1ccc(-c2ccccn2)nc1` [(3)], it took 73.8 ± 3.7 µM to reach half-maximal inhibition with NHDF (IC50). Further, the IC50 in the assay with MCF-7 was determined as 34.5 ± 1.7 µM. In the assay on CT-DNA, the “Kb, method II” value is 6072 M⁻¹; the “Kb, method III” value came out at 16031 M⁻¹; the “Kb, method I, Oxi” value came to 11440 M⁻¹; the “Kb, method I, red” value came to 9156 M⁻¹. For the same molecule, in the assay with Escherichia coli, the Inhibition% is 50% and the “Diameter of clear zone inhibition” value was found to be 12 mm.

`Oc1ccccc1N=Cc1ccc(N2CCOCC2)cc1` [(HL), 2-(4-morpholinobenzylideneamino)phenol]: the IC50 in the assay with NHDF (Homo sapiens) was found to be 209 ± 10.4 µM. The molecule further displayed an IC50 in the assay on MCF-7 (Homo sapiens, MCF7) of 105 ± 5.3 µM. Besides, in the assay on CT-DNA, the “Kb, method II” value is 2443 M⁻¹; the “Kb, method III” value worked out at 4837 M⁻¹; the “Kb, method I, Oxi” value was determined as 5280 M⁻¹; the “Kb, method I, red” value amounted to 3809 M⁻¹. In the assay on Escherichia coli, the Inhibition% is 33% and the “Diameter of clear zone inhibition” value came to 09 mm.
